# Values of other authors in patent US7709454B2, “Methods and compositions for inhibiting tumorigenesis” (New York University, priority 1997, dated 2010).
# Read-outs that look alike come from different tables or passages of the source.
# What was measured:
# [1] = test system: Nude Harlan Sprague-Dawley Mice/lung (A-549, Calu-1) tumors; settings: cited from earlier work
# [2] = test system: A/J mice lung adenomas; settings: 50 mg/kg/d; cited from earlier work
# [3] = test system: Glioma cell lines; settings: cited from earlier work
# [4] = test system: Rat-1 cells; settings: cited from earlier work
# [5] = test system: Human melanoma cell lines; settings: cited from earlier work
# [6] = test system: SCID mice/melanoma (518A2, 607B); settings: cited from earlier work
compound,measurement,setting,value
CSCC[C@H](NC(=O)c1ccc(NC[C@@H](N)CS)cc1-c1ccccc1)C(=O)O [FTI-276],GROWTH INHIBITION,[1]; 70 mg/kg/d,70%-94%
same,GROWTH INHIBITION,"[1]; 10, 50, 100 mg/kg/d",75%
same,GROWTH INHIBITION,[2],58%
COC(=O)[C@H](CCSC)NC(=O)c1ccc(NC[C@@H](N)CS)cc1-c1ccccc1 [FTI-277],IC50,[3],2 to 15.5 µM
same,GROWTH INHIBITION,"[1]; 50 mg/kg/d, lung (A-549, Calu-1) tumors, NIH3T3",80%
"CC(C)=CCC/C(C)=C/CC/C(C)=C/CSc1ccccc1C(=O)O [FTS, S-farnesylthiosalicyclic acid]",IC50,[4],30 to 40 µM
same,IC50,[5],100 µM
same,GROWTH INHIBITION,[6]; 5 mg/kg/d,82-90% of controls
same,growth of human melanoma in SCID mice,"[6]; mouse, in vivo",significant reduction in the growth
